Data on seven compounds can be found in ChEMBL document CHEMBL3627665, “Challenges and Opportunities in the Discovery of New Therapeutics Targeting the Kynurenine Pathway” (J Med Chem, 2015).

By IC50 is commonly meant the concentration at which inhibition is half-maximal. A low value points to higher potency.

A value given as a limit tells only on which side of the number the result lay.

Test [1] addresses Kynurenine/alpha-aminoadipate aminotransferase, mitochondrial (Rattus norvegicus, UniProt Q64602). Nature of the test: Inhibition of rat KAT-2.
Test [2] deals with Tryptophan 2,3-dioxygenase (Mus musculus, UniProt P48776). Nature of the test: Inhibition of mouse TDO.
Chain of Tryptophan 2,3-dioxygenase (Mus musculus, UniProt P48776) (P48776 whole entry): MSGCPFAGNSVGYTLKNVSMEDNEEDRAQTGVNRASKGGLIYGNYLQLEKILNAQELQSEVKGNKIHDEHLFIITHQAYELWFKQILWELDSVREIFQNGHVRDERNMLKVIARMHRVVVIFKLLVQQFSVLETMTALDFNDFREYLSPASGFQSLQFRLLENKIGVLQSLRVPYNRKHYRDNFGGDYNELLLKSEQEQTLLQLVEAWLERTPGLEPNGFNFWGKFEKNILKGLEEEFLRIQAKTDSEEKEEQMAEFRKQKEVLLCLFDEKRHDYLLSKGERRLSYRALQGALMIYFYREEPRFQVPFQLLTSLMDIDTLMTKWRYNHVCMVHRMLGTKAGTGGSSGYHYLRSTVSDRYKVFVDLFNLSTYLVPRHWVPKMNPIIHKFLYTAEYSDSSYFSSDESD
For test [3], the target named is Indoleamine 2,3-dioxygenase 1 (Mus musculus, UniProt P28776). Nature of the test: Inhibition of mouse IDO1.
Chain of Indoleamine 2,3-dioxygenase 1 (P28776 whole entry): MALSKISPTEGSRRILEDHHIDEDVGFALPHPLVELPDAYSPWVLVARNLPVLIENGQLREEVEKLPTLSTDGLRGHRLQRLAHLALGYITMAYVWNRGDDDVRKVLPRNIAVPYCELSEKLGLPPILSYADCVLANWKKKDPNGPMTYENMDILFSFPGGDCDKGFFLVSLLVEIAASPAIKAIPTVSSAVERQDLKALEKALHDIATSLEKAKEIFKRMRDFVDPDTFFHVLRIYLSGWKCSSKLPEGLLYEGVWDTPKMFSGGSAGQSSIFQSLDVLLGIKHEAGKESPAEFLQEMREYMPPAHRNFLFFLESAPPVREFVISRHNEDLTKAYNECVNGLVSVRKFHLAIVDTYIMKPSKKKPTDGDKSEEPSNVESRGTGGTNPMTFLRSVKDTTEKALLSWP
Test [4] deals with Tryptophan 2,3-dioxygenase (Homo sapiens, UniProt P48775). Nature of the test: Inhibition of TDO (unknown origin).
Chain of Tryptophan 2,3-dioxygenase (Homo sapiens, UniProt P48775) (P48775 whole entry): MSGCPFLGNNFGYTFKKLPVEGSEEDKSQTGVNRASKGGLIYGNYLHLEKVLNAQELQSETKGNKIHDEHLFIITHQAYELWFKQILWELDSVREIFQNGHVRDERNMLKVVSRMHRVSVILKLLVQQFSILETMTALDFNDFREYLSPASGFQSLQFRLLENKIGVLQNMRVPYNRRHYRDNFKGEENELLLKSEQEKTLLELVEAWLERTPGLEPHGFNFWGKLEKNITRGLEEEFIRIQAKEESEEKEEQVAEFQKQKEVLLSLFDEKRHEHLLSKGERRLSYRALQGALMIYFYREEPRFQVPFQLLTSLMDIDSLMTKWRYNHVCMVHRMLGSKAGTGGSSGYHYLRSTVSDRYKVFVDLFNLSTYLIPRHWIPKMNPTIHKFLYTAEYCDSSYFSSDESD
For test [5], the target named is Kynurenine 3-monooxygenase (Homo sapiens, UniProt O15229). As to the kind of experiment: Inhibition of human KMO.
Chain of Kynurenine 3-monooxygenase (Homo sapiens, UniProt O15229) (O15229 whole entry): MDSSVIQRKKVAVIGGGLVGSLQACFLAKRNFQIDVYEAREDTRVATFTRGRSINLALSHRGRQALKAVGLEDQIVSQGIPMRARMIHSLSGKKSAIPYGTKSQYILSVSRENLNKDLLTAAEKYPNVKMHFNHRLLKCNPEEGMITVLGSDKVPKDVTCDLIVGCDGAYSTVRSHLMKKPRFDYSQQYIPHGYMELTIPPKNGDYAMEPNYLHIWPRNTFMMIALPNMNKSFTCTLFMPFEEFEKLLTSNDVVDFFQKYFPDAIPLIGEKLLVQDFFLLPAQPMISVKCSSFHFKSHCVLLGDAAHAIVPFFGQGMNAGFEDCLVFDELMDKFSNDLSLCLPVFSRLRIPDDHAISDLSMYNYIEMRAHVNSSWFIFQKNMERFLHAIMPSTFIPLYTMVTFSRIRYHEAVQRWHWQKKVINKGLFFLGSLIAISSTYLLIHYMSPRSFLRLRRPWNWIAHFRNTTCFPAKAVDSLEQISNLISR
The target of test [6] is T1, Kynurenine 3-monooxygenase (Saccharomyces cerevisiae (strain ATCC 204508 / S288c) (Baker's yeast), UniProt P38169).
T1 sequence (P38169 whole entry): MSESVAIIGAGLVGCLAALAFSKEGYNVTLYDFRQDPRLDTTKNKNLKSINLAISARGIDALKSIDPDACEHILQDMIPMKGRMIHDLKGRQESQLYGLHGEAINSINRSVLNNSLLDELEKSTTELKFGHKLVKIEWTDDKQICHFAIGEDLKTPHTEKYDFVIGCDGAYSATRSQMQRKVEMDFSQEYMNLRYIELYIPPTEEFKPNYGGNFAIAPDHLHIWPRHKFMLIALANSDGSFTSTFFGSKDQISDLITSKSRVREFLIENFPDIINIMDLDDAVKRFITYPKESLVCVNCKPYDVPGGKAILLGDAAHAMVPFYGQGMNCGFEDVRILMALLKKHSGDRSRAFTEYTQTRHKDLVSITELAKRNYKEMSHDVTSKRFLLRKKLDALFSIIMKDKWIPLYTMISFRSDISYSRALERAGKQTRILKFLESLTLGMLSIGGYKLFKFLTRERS
As to the kind of experiment: Inhibition of yeast KMO.

Test [7] deals with T2, Indoleamine 2,3-dioxygenase 2 (Homo sapiens, UniProt Q6ZQW0).
T2 sequence (Q6ZQW0 whole entry): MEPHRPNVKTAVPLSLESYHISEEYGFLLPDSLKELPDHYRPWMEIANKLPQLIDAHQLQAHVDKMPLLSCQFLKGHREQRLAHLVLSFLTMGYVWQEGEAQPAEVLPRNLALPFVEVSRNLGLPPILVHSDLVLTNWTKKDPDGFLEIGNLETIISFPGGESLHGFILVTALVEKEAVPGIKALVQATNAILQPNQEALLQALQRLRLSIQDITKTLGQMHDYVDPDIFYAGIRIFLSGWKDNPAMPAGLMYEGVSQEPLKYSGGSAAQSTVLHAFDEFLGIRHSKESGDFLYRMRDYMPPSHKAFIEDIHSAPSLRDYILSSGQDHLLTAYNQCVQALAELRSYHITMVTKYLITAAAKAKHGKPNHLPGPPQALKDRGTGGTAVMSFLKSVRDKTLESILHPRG
Nature of the test: Inhibition of human IDO2.

Chain of Kynurenine/alpha-aminoadipate aminotransferase, mitochondrial (Q64602 whole entry): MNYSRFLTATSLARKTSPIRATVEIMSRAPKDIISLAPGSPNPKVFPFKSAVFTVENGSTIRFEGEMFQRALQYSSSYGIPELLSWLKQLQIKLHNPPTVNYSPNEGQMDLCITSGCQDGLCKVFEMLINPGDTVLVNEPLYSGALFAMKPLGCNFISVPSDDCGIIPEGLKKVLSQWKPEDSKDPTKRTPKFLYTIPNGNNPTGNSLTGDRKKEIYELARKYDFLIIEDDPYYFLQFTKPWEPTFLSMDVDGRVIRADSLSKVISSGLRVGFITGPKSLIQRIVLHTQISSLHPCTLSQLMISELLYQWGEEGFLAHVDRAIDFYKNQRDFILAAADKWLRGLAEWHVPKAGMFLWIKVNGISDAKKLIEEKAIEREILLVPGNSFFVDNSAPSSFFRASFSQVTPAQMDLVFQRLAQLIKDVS

As for `O=C1NC(=O)/C(=C/c2cccc(-c3ccc4c5c3CCC(=O)N5CC4)c2)S1`, half-maximal inhibition in test [1] (IC50) was put at 13400 nM.

For the compound `Fc1ccc2c(/C=C/c3nnn[nH]3)c[nH]c2c1`, the results for the IC50 in test [2] and in test [3] were 1960 nM and greater than 400000 nM, respectively.

`O=C(CC1c2ccccc2-c2cncn21)C1CCCCC1` (stereo unspecified) registered an IC50 in test [4] of less than 1000 nM.

`O=C(O)C1CC1C(=O)c1ccc(Cl)c(Cl)c1` (stereo unspecified): the results for the IC50 in test [5] and in test [6] were 20 nM and 74 nM, respectively.

Consider `Cc1ccc(-c2csc3nnc(SCC(=O)Nc4ccc5c(c4)OCO5)n23)cc1`, for which the IC50 was greater than 62500 nM in test [4] and greater than 250000 nM in test [7].

In the case of `Fc1ccc2c(/C=C/c3cccnc3)c[nH]c2c1`, the IC50 was 1460 nM in test [2] and greater than 80000 nM in test [3].

Consider `CCS(=O)(=O)c1ccc(C(=O)C[C@H](N)C(=O)O)cc1`, for which the IC50 in test [1] was found to be 71000 nM.
